The source of these data is patent publication US20180148418A1, “AMIDO-SUBSTITUTED CYCLOHEXANE DERIVATIVES” (Bayer Pharma Aktiengesellschaft, priority 2015, published 2018).

Counter-ions that a name gives are not always drawn. Some results are limits rather than exact numbers.

Test [1] concerns the target T1, TNKS2 (Homo sapiens, UniProt Q9H2K2).
T1 construct: purchased BPS Bioscience, San Diego, USA 80572 (TNKS2 Histone Ribosylation Assay Kit)
T1 sequence (Q9H2K2 1-1166): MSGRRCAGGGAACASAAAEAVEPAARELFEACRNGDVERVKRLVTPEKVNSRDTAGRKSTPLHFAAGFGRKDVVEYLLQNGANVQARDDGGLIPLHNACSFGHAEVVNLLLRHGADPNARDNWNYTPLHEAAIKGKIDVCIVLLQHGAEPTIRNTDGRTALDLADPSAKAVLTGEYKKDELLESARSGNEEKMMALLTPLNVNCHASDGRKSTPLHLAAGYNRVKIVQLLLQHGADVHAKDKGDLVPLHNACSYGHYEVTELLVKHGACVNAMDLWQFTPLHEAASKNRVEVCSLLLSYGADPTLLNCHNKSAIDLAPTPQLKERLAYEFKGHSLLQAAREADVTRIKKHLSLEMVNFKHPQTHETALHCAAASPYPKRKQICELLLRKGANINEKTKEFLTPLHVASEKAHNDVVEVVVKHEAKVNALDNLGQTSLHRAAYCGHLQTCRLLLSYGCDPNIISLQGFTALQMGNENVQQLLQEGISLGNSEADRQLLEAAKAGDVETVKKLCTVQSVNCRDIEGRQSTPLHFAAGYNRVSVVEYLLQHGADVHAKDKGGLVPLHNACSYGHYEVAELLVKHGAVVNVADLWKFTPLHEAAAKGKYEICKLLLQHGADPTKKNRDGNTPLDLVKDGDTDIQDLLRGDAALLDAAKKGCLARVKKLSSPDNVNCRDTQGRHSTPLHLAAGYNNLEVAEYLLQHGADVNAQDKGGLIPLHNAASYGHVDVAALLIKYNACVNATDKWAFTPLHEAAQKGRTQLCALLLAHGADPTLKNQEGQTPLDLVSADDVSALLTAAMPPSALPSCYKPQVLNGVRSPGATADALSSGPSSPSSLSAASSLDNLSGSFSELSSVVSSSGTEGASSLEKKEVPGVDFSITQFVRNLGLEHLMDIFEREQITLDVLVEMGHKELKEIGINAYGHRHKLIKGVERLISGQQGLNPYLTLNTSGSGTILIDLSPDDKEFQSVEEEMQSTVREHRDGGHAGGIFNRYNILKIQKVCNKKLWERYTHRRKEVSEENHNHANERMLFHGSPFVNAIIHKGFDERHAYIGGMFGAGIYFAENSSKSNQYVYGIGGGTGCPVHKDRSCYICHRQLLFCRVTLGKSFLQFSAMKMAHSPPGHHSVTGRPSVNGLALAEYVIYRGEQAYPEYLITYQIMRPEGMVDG
Put plainly: TNKS2 Assay B (auto-parsylation, [3H]-NAD+ SPA). The format is biochemical. As to conditions: 6 nM TNKS2, auto-parsylation, over night at room temperature.

Test [2] deals with HEK293 cells cotransfected with the FOP control vector. The test is described as follows: HEK293 FOP assay (control reporter with non-functional TCF elements). The format is cell-based. As to conditions: Homo sapiens, 16 hours. Summed up: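 Stable HEK293 line carrying FOP control reporter (randomized non-functional TCF sites, with pcDNA3), Geneticin-selected, plated 24 h before assay. Stimulated with recombinant human Wnt-3a (2500-5 ng/ml) and compounds 50 μM–15 nM (3.16-fold steps) in CAFTY buffer pH 7.4 with 2 mM Ca2+, 0.01% BSA, run parallel to TOP line.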

In test [1], `CNC(=O)c1[nH]cnc1C(=O)NC1CCC(C(=O)Nc2ccc(F)cc2Cl)CC1C` (racemic) [Example 39, N^4-{4-[(2-chloro-4-fluorophenyl)carbamoyl]-2-methylcyclohexyl}-N^5-methyl-1H-imidazole-4,5-dicarboxamide] displayed an IC50 of 100 nM.
`Cc1c(C(C)N(C)C)cnc2c(C(=O)N[C@H]3CC[C@H](C(=O)Nc4ccc(F)cc4Cl)CC3)cnn12` (mixture of isomers) [Example 55, N-{trans-4-[(2-chloro-4-fluorophenyl)carbamoyl]cyclohexyl}-6-[1-(dimethylamino)ethyl]-7-methylpyrazolo[1,5-a]pyrimidine-3-carboxamide formic acid salt]: the IC50 is at least 50000 nM in test [2] and 490 nM in test [1].
Regarding `O=C(NCCN1CCCCC1)c1nc[nH]c1C(=O)N[C@H]1CC[C@H](C(=O)Nc2ccc(F)cc2Cl)CC1` [Example 2, N^5-{trans-4-[(2-chloro-4-fluorophenyl)carbamoyl]cyclohexyl}-N^4-[2-(piperidin-1-yl)ethyl]-1H-imidazole-4,5-dicarboxamide], the 50% inhibitory concentration (IC50) in test [2] is at least 50000 nM; in test [1] it was 230 nM.
The like results for `CNC(C)c1cnc2c(C(=O)N[C@H]3CC[C@H](C(=O)Nc4ccc(F)cc4Cl)CC3)cnn2c1C` (stereo partly drawn) [Example 54, N-{trans-4-[(2-chloro-4-fluorophenyl)carbamoyl]cyclohexyl}-7-methyl-6-[1-(methylamino)ethyl]pyrazolo[1,5-a]pyrimidine-3-carboxamide formic acid salt] were, in that order, at least 50000 nM and 680 nM.
Turning to `COCC(C)NC(=O)c1nc[nH]c1C(=O)N[C@H]1CC[C@H](C(=O)Nc2cc(N3CCOCC3)ccc2Cl)CC1` (stereo partly drawn) [Example 91, N^5-(trans-4-{[2-chloro-5-(morpholin-4-yl)phenyl]carbamoyl}cyclohexyl)-N^4-(1-methoxypropan-2-yl)-1H-imidazole-4,5-dicarboxamide], the half-maximal inhibitory concentration (IC50) in test [2] is at least 50000 nM; in test [1], 6800 nM.
